# According to ChEMBL document CHEMBL4627415, “Design and Structural Optimization of Dual FXR/PPARδ Activators” (J Med Chem, 2020):
# The source made the active and inactive calls. The rule behind the calls is not given here.
# Experiments:
# [1] = target: T1, Peroxisome proliferator-activated receptor delta (Homo sapiens, UniProt Q03181); test: Activation of human PPAR-delta LBD expressed in HEK293T cells assessed as induction of receptor activation incubated for 12 to 14 hrs by luciferase reporter gene assay; assay type: cell-based, HEK-293T
# T1 sequence (Q03181 whole entry): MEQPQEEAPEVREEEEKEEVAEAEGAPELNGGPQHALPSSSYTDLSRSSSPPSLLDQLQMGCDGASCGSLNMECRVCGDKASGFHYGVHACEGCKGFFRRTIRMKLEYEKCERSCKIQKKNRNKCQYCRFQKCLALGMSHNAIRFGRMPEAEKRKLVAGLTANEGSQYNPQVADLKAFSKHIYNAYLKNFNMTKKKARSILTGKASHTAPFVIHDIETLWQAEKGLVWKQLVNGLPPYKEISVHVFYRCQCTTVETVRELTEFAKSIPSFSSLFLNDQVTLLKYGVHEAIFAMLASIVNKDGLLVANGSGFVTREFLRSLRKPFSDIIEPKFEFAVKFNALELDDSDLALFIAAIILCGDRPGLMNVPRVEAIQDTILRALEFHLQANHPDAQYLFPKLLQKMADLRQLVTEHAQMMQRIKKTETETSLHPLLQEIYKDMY
# [2] = target: T2, Peroxisome proliferator-activated receptor delta (Homo sapiens) (UniProt Q03181); test: Activation of human PPAR-delta LBD expressed in HEK293T cells assessed as induction of receptor activation at 10 uM incubated for 12 to 14 hrs by luciferase reporter gene assay; assay type: cell-based; settings: HEK-293T
# T2 sequence (whole entry): T1 sequence (Q03181 whole entry)
# [3] = target: T3, Retinoic acid receptor RXR-alpha (Homo sapiens) (UniProt P19793); test: Activation of human RXR-alphaLBD expressed in HEK293T cells assessed as induction of receptor activation at 10 uM incubated for 12 to 14 hrs by luciferase reporter gene assay; assay type: cell-based; settings: HEK-293T
# T3 sequence (whole entry): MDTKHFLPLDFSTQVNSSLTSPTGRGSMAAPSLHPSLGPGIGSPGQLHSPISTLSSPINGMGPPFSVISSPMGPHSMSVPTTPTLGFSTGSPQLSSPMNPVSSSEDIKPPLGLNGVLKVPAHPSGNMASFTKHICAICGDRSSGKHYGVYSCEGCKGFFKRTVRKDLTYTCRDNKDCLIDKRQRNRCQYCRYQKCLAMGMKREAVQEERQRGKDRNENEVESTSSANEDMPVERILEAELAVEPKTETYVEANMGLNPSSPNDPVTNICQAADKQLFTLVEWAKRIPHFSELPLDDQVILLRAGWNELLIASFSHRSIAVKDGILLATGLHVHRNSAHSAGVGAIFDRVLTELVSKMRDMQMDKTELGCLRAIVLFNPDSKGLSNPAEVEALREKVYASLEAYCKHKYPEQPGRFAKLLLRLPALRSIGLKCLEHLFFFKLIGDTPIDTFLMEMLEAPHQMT
# [4] = target: T4, Peroxisome proliferator-activated receptor alpha (Homo sapiens) (UniProt Q07869); test: Activation of human PPAR-alpha LBD expressed in HEK293T cells assessed as induction of receptor activation at 10 uM incubated for 12 to 14 hrs by luciferase reporter gene assay; assay type: cell-based; settings: HEK-293T
# T4 sequence (whole entry): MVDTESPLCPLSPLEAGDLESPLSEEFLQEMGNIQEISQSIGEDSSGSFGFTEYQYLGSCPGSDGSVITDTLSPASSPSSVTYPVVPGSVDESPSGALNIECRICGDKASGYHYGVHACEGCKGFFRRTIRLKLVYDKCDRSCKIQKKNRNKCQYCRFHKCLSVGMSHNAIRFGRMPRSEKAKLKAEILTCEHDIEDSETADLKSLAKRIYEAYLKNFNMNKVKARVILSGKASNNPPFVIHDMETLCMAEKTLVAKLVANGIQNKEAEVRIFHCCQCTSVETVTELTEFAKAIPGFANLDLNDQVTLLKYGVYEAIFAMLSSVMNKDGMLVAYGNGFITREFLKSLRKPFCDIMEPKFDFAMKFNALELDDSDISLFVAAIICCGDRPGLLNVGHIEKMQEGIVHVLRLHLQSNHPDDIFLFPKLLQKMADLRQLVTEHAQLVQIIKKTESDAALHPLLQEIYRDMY
# [5] = target: T5, Bile acid receptor (Homo sapiens) (UniProt Q96RI1); test: Activation of human FXR LBD expressed in HEK293T cells assessed as induction of receptor activation at 1 to 3 uM incubated for 12 to 14 hrs by luciferase reporter gene assay; assay type: cell-based; settings: HEK-293T
# T5 sequence (whole entry): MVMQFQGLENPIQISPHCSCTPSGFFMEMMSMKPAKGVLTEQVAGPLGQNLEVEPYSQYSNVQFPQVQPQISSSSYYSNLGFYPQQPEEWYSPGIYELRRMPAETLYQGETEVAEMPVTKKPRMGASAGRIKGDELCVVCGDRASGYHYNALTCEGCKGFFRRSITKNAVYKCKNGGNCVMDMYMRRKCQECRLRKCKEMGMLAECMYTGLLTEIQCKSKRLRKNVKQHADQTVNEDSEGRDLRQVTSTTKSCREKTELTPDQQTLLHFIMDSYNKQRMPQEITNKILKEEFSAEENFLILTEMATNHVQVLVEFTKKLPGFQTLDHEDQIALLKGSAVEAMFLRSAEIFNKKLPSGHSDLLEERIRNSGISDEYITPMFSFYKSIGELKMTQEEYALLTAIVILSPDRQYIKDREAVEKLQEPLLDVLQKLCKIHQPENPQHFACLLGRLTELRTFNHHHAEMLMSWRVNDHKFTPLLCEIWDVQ
# [6] = target: T2, Peroxisome proliferator-activated receptor delta (Homo sapiens); test: Activation of human PPAR-delta LBD expressed in HEK293T cells assessed as induction of receptor activation at 1 to 3 uM incubated for 12 to 14 hrs by luciferase reporter gene assay; assay type: cell-based; settings: HEK-293T
# [7] = target: T5, Bile acid receptor (Homo sapiens); test: Activation of FXR in human HepG2 cells assessed as increase in SHP mRNA expression at 3 uM incubated for 8 hrs by quantitative real time PCR analysis; assay type: cell-based
# [8] = target: T6, Peroxisome proliferator-activated receptor delta (Mus musculus) (UniProt P35396); test: Activation of PPARD in mouse C2C12 cells assessed as increase LpL mRNA expression at 3 uM incubated for 8 hrs by quantitative real time PCR analysis; assay type: cell-based
# T6 sequence (whole entry): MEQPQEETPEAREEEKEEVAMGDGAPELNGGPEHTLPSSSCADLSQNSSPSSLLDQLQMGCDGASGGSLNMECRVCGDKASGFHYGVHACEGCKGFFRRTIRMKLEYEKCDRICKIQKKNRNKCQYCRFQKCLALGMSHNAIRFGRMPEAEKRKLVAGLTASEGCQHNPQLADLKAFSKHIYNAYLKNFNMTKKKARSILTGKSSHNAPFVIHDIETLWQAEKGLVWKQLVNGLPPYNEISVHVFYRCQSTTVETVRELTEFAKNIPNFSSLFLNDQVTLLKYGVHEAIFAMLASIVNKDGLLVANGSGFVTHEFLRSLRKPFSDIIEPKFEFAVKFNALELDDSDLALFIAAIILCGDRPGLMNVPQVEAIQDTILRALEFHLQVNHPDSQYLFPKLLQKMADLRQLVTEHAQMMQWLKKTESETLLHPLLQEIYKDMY
# [9] = target: T6, Peroxisome proliferator-activated receptor delta (Mus musculus); test: Activation of PPARD in mouse C2C12 cells assessed as increase PCK mRNA expression at 3 uM incubated for 8 hrs by quantitative real time PCR analysis; assay type: cell-based
compound,measurement,setting,value
CC(C)c1onc(-c2c(Cl)cccc2Cl)c1COc1ccc(CNc2ccc(CC(=O)O)cc2)c(Cl)c1,EC50,[1],1500 nM
same,Activity,[2],Active
same,Activity,[3],inactive
same,Activity,[4],inactive
same,Activity,[5],Active
same,Activity,[6],Active
same,Activity,[7],Active
same,Activity,[8],Active
same,Activity,[9],Active
